# Assay results from article PMC8795197, “Safety and activity of WX-0593 (Iruplinalkib) in patients with ALK- or ROS1-rearranged advanced non-small cell lung cancer: a phase 1 dose-escalation and dose-expansion trial” (Signal Transduction and Targeted Therapy, 2022).
# pEC50, pIC50: −log10 of the molar value. “And” between values parts separate entries of the source, which are not always exact repeats. Identical values can stand only once. “Also recorded” adds a separate entry of the source. Like-named read-outs stand apart in the source and are kept apart here.
# Experiments:
# [1] = tested on: remaining 17 GPCR targets; assay: GPCR antagonist screening assay; assay type: cell-based; conditions: highest dose detected
# [2] = Reproductive toxicity study; conditions: rat, in vivo
# 21 GPCR targets = assay: GPCR agonist screening assay; assay type: cell-based; conditions: all 21 GPCR targets
# Text: In the agonist screening assay, the activity percent at maximum dose of WX-0593 was all less than 50% for the 21 GPCR targets tested.
# Ba/F3 (EML4-ALK-L1196M) = assay: Cell proliferation inhibition assay; assay type: cell-based
# Ba/F3 = assay: Cell proliferation inhibition assay; assay type: cell-based
# Ba/F3 (EML4-ALK-C1156Y) = assay: Cell proliferation inhibition assay; assay type: cell-based
# [3] = tested on: advanced NSCLC patients with ALK or ROS1 rearrangement; assay: Phase 1 trial: safety (adverse events, DLT, MTD; NCI CTCAE 4.03); assay type: in vivo
# Protocol: This FIH, single arm, multicenter, phase 1 study was conducted in advanced NSCLC patients with ALK or ROS1 rearrangement, composed of the dose-escalation and dose-expansion phases. The dose-escalation and dose-expansion phases were conducted at 4 and 38 centers in mainland China, respectively (Supplementary Table S1), and were done in compliance with the Declaration of Helsinki and International Council for Harmonisation guidelines for Good Clinical Practice. The study protocol and amendments were approved by the independent ethics committee at every participating site. Written informed consent was provided by all patients before being screened for enrolment.
# ALK and ROS1 rearrangements were established by immunohistochemistry, reverse transcription-polymerase chain reaction (PCR), amplification refractory mutation system-PCR, fluorescence in situ hybridization, or next-generation sequencing. Patients must have at least one measurable lesion as defined by Response Evaluation Criteria in Solid Tumors (RECIST) version 1.1. Other key eligibility criteria included an age of 18–70 years, an Eastern Cooperative Oncology Group performance status of 0 or 1, a life expectancy of at least 12 weeks, and adequate organ function, including adequate function of bone marrow (absolute neutrophil count ≥1.5 × 10^9/L, platelets ≥100 × 10^9/L, hemoglobin ≥90 g/L) and liver function (total bilirubin ≤1.5× upper limit of normal [ULN], ALT and AST ≤2.5× ULN [≤5.0× ULN for liver metastasis patients]).
# In the dose-escalation phase, a standard 3 + 3 design was used to determine the MTD.[29]
# Three patients were assigned to each dose level.
# Patients continued treatment until documented disease progression, unacceptable toxicity, withdrawal of consent, the start of a new anticancer treatment, death, loss of follow-up, or end of the study (whichever occurred first). Patients were permitted to continue treatment after progression if they were still experiencing clinical benefit, at the discretion of the investigator.
# For grade ≥3 AEs (also including grade ≥2 cardiac dysfunction and renal dysfunction, etc.), dose interruption could occur.
# Patients performed imaging evaluation at baseline, with computed tomography or magnetic resonance imaging of the chest, abdomen, pelvis, and brain. […] In the dose-expansion phase, tumor response was assessed every 6 weeks until 48 weeks and every 12 weeks thereafter until documented disease progression. If responses (CR or PR) were observed, repeat assessments were required to confirm the responses 4 weeks after the initial evaluation. Tumor responses were assessed by local investigators according to RECIST 1.1.
# Safety parameters included TEAEs, SAEs, and TRAEs.
# [4] = TEAE, Grade 1–2, total (n = 152)
# [5] = TEAE, ≥Grade 3, total (n = 152)
# [6] = TEAE, ≥Grade 3, dose: 30, 60, 90, 120, 180, 240, 300 mg
# [7] = TRAE, ≥grade 3, dose: 30, 60, 90, 120, 180, 240, 300 mg
structure (smiles),measurement,setting,value
COc1cc(N2CCC3(CCN(C)CC3)CC2)ccc1Nc1ncc(Cl)c(Nc2ccccc2P(C)(C)=O)n1 [WX-0593],pIC50,[1],< 3.95
same,NOAEL as multiple of the effective dose in nude mice,[2],8 times
same,NOAEL,[2]; read-out: NOAEL of fertility and early embryo developmental toxicity,10 mg/kg
same,activity percent at maximum dose (agonist),21 GPCR targets,less than 50%
same,pEC50,21 GPCR targets; highest dose detected,< 3.88
same,growth inhibition,Ba/F3 (EML4-ALK-L1196M),significantly inhibits the growth
same,IC50 relative to ALK-related cells,Ba/F3,significantly higher
same,growth inhibition,Ba/F3 (EML4-ALK-C1156Y),significantly inhibits the growth
same,"Dizziness, patients n (%)",[3],0
same,"ALT elevated, patients n (%)",[3]; [4],39 (26%)
same,"AST elevated, patients n (%)",[3]; [4],41 (27%)
same,"CPK elevated, patients n (%)",[3]; [4],31 (20%)
same,"Dizziness, patients n (%)",[3]; [4],16 (11%)
same,"Headache, patients n (%)",[3]; [4],14 (9%)
same,"Hypertension, patients n (%)",[3]; [4],24 (16%)
same,"Hypertriglyceridemia, patients n (%)",[3]; [4],32 (21%)
same,"Upper respiratory infection, patients n (%)",[3]; [4],16 (11%)
same,"diarrhea, patients n (%)",[3]; [4],21 (14%)
same,"hypercholesterolemia, patients n (%)",[3]; [4],42 (28%)
same,"hyperlipidemia, patients n (%)",[3]; [4],21 (14%)
same,"nausea, patients n (%)",[3]; [4],48 (32%)
same,"rash, patients n (%)",[3]; [4],19 (13%)
same,"γ-GGT elevated, patients n (%)",[3]; [4],12 (8%)
same,"Headache, patients n (%)","[3]; TEAE, all grade, total (n = 152)",14 (9%)
same,"ALT elevated, patients n (%)",[3]; [5],6 (4%)
same,"AST elevated, patients n (%)",[3]; [5],6 (4%)
same,"CPK elevated, patients n (%)",[3]; [5],0
same,"Headache, patients n (%)",[3]; [5],0
same,"Hypertension, patients n (%)",[3]; [5],9 (6%)
same,"Hypertriglyceridemia, patients n (%)",[3]; [5],5 (3%)
same,"Upper respiratory infection, patients n (%)",[3]; [5],1 (1%)
same,"diarrhea, patients n (%)",[3]; [5],1 (1%)
same,"hypercholesterolemia, patients n (%)",[3]; [5],5 (3%)
same,"hyperlipidemia, patients n (%)",[3]; [5],1 (1%)
same,"nausea, patients n (%)",[3]; [5],0
same,"rash, patients n (%)",[3]; [5],1 (1%)
same,"vomiting, patients n (%)",[3]; [5],0
same,"γ-GGT elevated, patients n (%)",[3]; [5],5 (3%)
same,"CPK elevated, patients n (%)",[3]; [6],0
same,"Dizziness, patients n (%)",[3]; [6],0
same,"Headache, patients n (%)",[3]; [6],0
same,"nausea, patients n (%)",[3]; [6],0
same,"vomiting, patients n (%)",[3]; [6],0
same,"ALT elevated, patients n (%)","[3]; TRAE, grade 1-2, total (n=152)",38(25%)
same,"AST elevated, patients n (%)","[3]; TRAE, grade 1-2, total (n=152)",41(27%)
same,"CPK elevated, patients n (%)","[3]; TRAE, grade 1-2, total (n=152)",25(16%)
same,"Hypertension, patients n (%)","[3]; TRAE, grade 1-2, total (n=152)",18(12%)
same,"Hypertriglyceridemia, patients n (%)","[3]; TRAE, grade 1-2, total (n=152)",28(18%)
same,"diarrhea, patients n (%)","[3]; TRAE, grade 1-2, total (n=152)",21(14%)
same,"hypercholesterolemia, patients n (%)","[3]; TRAE, grade 1-2, total (n=152)",39(26%)
same,"hyperlipidemia, patients n (%)","[3]; TRAE, grade 1-2, total (n=152)",15(10%)
same,"nausea, patients n (%)","[3]; TRAE, grade 1-2, total (n=152)",43(28%)
same,"rash, patients n (%)","[3]; TRAE, grade 1-2, total (n=152)",15(10%)
same,"vomiting, patients n (%)","[3]; TRAE, grade 1-2, total (n=152)",37(24%)
same,"γ-GGT elevated, patients n (%)","[3]; TRAE, grade 1-2, total (n=152)",10(7%)
same,"CPK elevated, patients n (%)","[3]; TRAE, ≥grade 3, total (n=152)",0
same,"diarrhea, patients n (%)","[3]; TRAE, ≥grade 3, total (n=152)",1(1%)
same,"hypercholesterolemia, patients n (%)","[3]; TRAE, ≥grade 3, total (n=152)",1(1%)
same,"hyperlipidemia, patients n (%)","[3]; TRAE, ≥grade 3, total (n=152)",0
same,"nausea, patients n (%)","[3]; TRAE, ≥grade 3, total (n=152)",0
same,"rash, patients n (%)","[3]; TRAE, ≥grade 3, total (n=152)",1(1%)
same,"vomiting, patients n (%)","[3]; TRAE, ≥grade 3, total (n=152)",0
same,"CPK elevated, patients n (%)",[3]; [7],0
same,"hyperlipidemia, patients n (%)",[3]; [7],0
same,"nausea, patients n (%)",[3]; [7],0
same,"vomiting, patients n (%)",[3]; [7],0
same,maximum tolerated dose (MTD),[3]; dose-escalation 30–300 mg,could not be identified; also recorded: not reached
same,dose-limiting toxicities (DLTs),"[3]; dose-escalation, 300 mg, in 1 of 3 patients: grade 3 QT interval prolonged, grade 2 chronic heart failure",Two
same,"AE led to dose interruption, patients n (%)",[3]; total (n=152),30(20%)
same,"AE led to dose interruption, treatment-related, patients n (%)",[3]; total (n=152),30 (20%) and 27(18%)
same,"AE led to dose reduction, treatment-related, patients n (%)",[3]; total (n=152),4 (3%)
same,"AE led to treatment termination, patients n (%)",[3]; total (n=152),11(7%)
same,"Adverse events, total, patients n (%)",[3]; total (n=152),148 (97%)
same,"Death during treatment, not related with disease progression, patients n (%)",[3]; total (n=152),6(4%)
same,"Death during treatment, related with disease progression, patients n (%)",[3]; total (n=152),1(1%)
same,"Discontinuation due to adverse event, patients n (%)",[3]; total (n=152),11(7%)
same,"Discontinuation due to adverse event, treatment-related, patients n (%)",[3]; total (n=152),8(5%)
same,"Serious adverse event, patients n (%)",[3]; total (n=152),25 (16%)
same,"≥grade 3 adverse event, patients n (%)",[3]; total (n=152),53 (35%)
